Values belong to the compound of their own block, whether it stands above or below them.
Tests used:
[1] = system: Nb-TP02; test: Nb-based indirect competitive ELISA for TPPU (TPPU immunoassay); format: binding, llama; details: for TPPU immunoassay CR: CR% = IC50 (TPPU)/IC50 (analog) × 100%; for TPPU immunoassay IC50: Nb-TP02, cAg 6-OVA
From the text: The limit of detection (LOD) of Nb-based ELISAs for detecting the concentrations of the sEHI was defined as the concentration of sEHI that provided a 10% inhibition rate (IC10 value). […]

[2] = system: Nb-EC03; test: Nb-based indirect competitive ELISA for EC5026 (EC5026 immunoassay); details: for EC5026 immunoassay CR: CR% = IC50 (EC5026)/IC50 (analog) × 100%; for EC5026 immunoassay IC50: Nb-EC03, cAg 2-BSA
Procedure: (d) 100 μL of HRP-anti-HA was introduced, incubated and shaken for another 60 min; (e) after the final washing step, 100 μL of the TMB substrate solution was added and incubated for 15 min, followed by being stopped by 50 μL of H2SO4 solution (1.0 M). […] The linear range was established between the IC20 value and the IC80 value.

[3] = molecular target: T1, human sEH (Homo sapiens, UniProt P34913); test: Activity on the target sEH enzyme; format: biochemical
T1 sequence (P34913 1-555): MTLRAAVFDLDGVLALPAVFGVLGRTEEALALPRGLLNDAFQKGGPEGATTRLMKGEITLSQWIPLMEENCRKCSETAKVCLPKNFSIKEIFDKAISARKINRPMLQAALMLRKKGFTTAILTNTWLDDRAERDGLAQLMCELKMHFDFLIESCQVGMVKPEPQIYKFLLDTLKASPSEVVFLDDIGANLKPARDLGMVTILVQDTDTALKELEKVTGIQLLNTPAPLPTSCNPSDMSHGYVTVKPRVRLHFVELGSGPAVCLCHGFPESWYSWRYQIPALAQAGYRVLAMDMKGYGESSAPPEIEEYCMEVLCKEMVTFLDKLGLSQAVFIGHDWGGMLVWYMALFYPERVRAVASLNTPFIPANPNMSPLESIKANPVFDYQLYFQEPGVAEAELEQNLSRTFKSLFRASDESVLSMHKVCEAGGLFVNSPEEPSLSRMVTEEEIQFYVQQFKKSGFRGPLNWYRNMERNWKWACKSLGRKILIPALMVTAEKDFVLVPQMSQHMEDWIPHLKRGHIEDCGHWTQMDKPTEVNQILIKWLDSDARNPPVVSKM

[4] = LC-MS analysis of urine samples from human clinical trial with EC5026; format: in vivo
Procedure: To assess the feasibility of Nb-based ELISAs for EC5026 and TPPU, the human urine and FBS were used as the matrix for precision and accuracy determination. The precision is shown as coefficient variation (CV%). The accuracy is expressed by the recovery, and the recovery is calculated as (Found concentration/Spiked concentration) × 100%. The standard solutions of EC5026 or TPPU were spiked blindly into human urine and FBS to obtain final concentrations of 1.25, 5 and 20 ng/mL, respectively. The experimental urine samples were collected from participants in the human clinical trial for EC5026, and the supernatant was collected by centrifugation (10,000 g, 5 min, 4 °C). The processed clinical samples were divided into two aliquots. One was diluted 10 times and then was detected by the Nb-based ELISA, and the other was for the LC-MS analysis directly in a bind fashion by different scientists.
The urine samples were analyzed by an LC-MS/MS method using Waters (Milford, MA, USA) Acquity UPLC system with Waters Xevo TQS tandem mass spectrometer. The separation was implemented on a Phenomenex Kinetex 150 x 2 mm C18 column. The mobile phases are 0.1 % of acetic acid in water as phase A, 0.1% of acetic acid in methanol as phase B. The gradient of the separation started from 50% of B and increased to 63% of B at 3.6 min then ramped to 95% at 4 min. The flow rate was 0.4 mL/min. The mass spectrometer was operated with negative electrospray ionization. The MRM transitions are 404.2/194 for EC5026, 420.2/194 for both M1 and M2. The source parameters of mass spectrometer are: capillary voltage: –3 KV, desolvation temperature: 300°C, desolvation gas flow: 800 L/hr; cone: 150 L/min; nebulizer: 7 bar.

[5] = molecular target: T1, human sEH; test: Inhibition of human sEH in vitro (potency unit definition, assay of Jones et al.); format: biochemical; details: 1 nM human sEH, read-out: 1 Potency unit: concentration permitting the inhibition of 50% of 1 nM of the human sEH
[6] = Subject 1, 0–8 h post exposure to EC5026
[7] = Subject 1, 8–16 h post exposure to EC5026
[8] = Subject 1, 16–24 h post exposure to EC5026
[9] = Subject 1, 24–32 h post exposure to EC5026
[10] = Subject 1, 32–40 h post exposure to EC5026
[11] = Subject 1, 40–48 h post exposure to EC5026
[12] = Subject 2, 0–8 h post exposure to EC5026
[13] = Subject 2, 8–16 h post exposure to EC5026
[14] = Subject 2, 16–24 h post exposure to EC5026
[15] = Subject 2, 24–32 h post exposure to EC5026
[16] = Subject 2, 32–40 h post exposure to EC5026
[17] = Subject 2, 40–48 h post exposure to EC5026
[18] = Subject 3, 0–8 h post exposure to EC5026
[19] = Subject 3, 8–16 h post exposure to EC5026
[20] = Subject 3, 16–24 h post exposure to EC5026
[21] = Subject 3, 24–32 h post exposure to EC5026
[22] = Subject 3, 32–40 h post exposure to EC5026
[23] = Subject 3, 40–48 h post exposure to EC5026

TPPU immunoassay IC50 [1]: 8.91 ng/mL | EC5026 immunoassay CR [2]: 34.0% | EC5026 immunoassay IC50 [2]: 4.23 ng/mL
Structure (SMILES): O=C(Nc1ccc(OC(F)(F)F)c(F)c1)NC1CCNCC1 [Compound 11, 1-(3-fluoro-4-(trifluoromethoxy)phenyl)-3-(piperidin-4-yl)urea]
TPPU immunoassay CR [1]: 33.4%

TPPU immunoassay IC50 [1]: 11.66 ng/mL
Structure (SMILES): O=C(Nc1ccc(OC(F)(F)F)cc1)NC1CCNCC1 [Compound 12]
TPPU immunoassay CR [1]: 25.6%

Structure (SMILES): Nc1ccc(OC(F)(F)F)c(F)c1 [Compound 14, 3-fluoro-4-(trifluoromethoxy)aniline]
TPPU immunoassay CR [1]: <0.01% | TPPU immunoassay IC50 [1]: >300000 ng/mL | IC50 [3]: > 50000 nM | EC5026 immunoassay CR [2]: <0.01% | EC5026 immunoassay IC50 [2]: >150000 ng/mL

TPPU immunoassay IC50 [1]: >300000 ng/mL | IC50 [3]: > 50000 nM | EC5026 immunoassay CR [2]: <0.01% | EC5026 immunoassay IC50 [2]: >150000 ng/mL
Structure (SMILES): Nc1ccc(OC(F)(F)F)cc1 [Compound 15, 4-(trifluoromethoxy)aniline]
TPPU immunoassay CR [1]: <0.01%

TPPU immunoassay IC50 [1]: 3.44 ng/mL | [EC5026] LC-MS analysis [4, 6]: 2.96 ng/mL | [EC5026] LC-MS analysis [4, 7]: 1.41 ng/mL | [EC5026] LC-MS analysis [4, 8]: 1.81 ng/mL | [EC5026] LC-MS analysis [4, 9]: 1.43 ng/mL | [EC5026] LC-MS analysis [4, 10]: 1.63 ng/mL | [EC5026] LC-MS analysis [4, 11]: 1.24 ng/mL | [EC5026] LC-MS analysis [4, 12]: 3.01 ng/mL | [EC5026] LC-MS analysis [4, 13]: 5.57 ng/mL | [EC5026] LC-MS analysis [4, 14]: 4.86 ng/mL | [EC5026] LC-MS analysis [4, 15]: 2.84 ng/mL | [EC5026] LC-MS analysis [4, 16]: 3.46 ng/mL | [EC5026] LC-MS analysis [4, 17]: 2.01 ng/mL | [EC5026] LC-MS analysis [4, 18]: 6.53 ng/mL | [EC5026] LC-MS analysis [4, 19]: 4.69 ng/mL | [EC5026] LC-MS analysis [4, 20]: 2.59 ng/mL | [EC5026] LC-MS analysis [4, 21]: 2.98 ng/mL | [EC5026] LC-MS analysis [4, 22]: 2.06 ng/mL | [EC5026] LC-MS analysis [4, 23]: 1.18 ng/mL | EC5026 immunoassay CR [2]: 100% | Curve parameters IC50 ([2]; Nb-EC03, cAg 1-BSA (homologous)): 7.32 ng/mL | Curve parameters IC50 ([2]; Nb-EC03, cAg 1-OVA (homologous)): 5.68 ng/mL | EC5026 immunoassay IC50 [2]: 1.44 ng/mL | Curve parameters IC50 ([2]; Nb-EC03, cAg 2-OVA (homologous)): 1.48 ng/mL | Curve parameters IC50 ([2]; Nb-EC03, cAg 3-BSA (heterologous)): 11.45 ng/mL | Curve parameters IC50 ([2]; Nb-EC03, cAg 3-OVA (heterologous)): 12.49 ng/mL
Structure (SMILES): CC[C@H](C)C(=O)N1CCC(NC(=O)Nc2ccc(OC(F)(F)F)c(F)c2)CC1 [EC5026]
TPPU immunoassay CR [1]: 86.6%

TPPU immunoassay IC50 [1]: 4.10 ng/mL | [M1] LC-MS analysis [4, 6]: 24.22 ng/mL | [M1] LC-MS analysis [4, 7]: 44.30 ng/mL | [M1] LC-MS analysis [4, 8]: 35.82 ng/mL | [M1] LC-MS analysis [4, 9]: 48.89 ng/mL | [M1] LC-MS analysis [4, 10]: 36.78 ng/mL | [M1] LC-MS analysis [4, 11]: 33.49 ng/mL | [M1] LC-MS analysis [4, 12]: 12.48 ng/mL | [M1] LC-MS analysis [4, 13]: 38.41 ng/mL | [M1] LC-MS analysis [4, 14]: 43.37 ng/mL | [M1] LC-MS analysis [4, 15]: 35.76 ng/mL | [M1] LC-MS analysis [4, 16]: 55.70 ng/mL | [M1] LC-MS analysis [4, 17]: 40.74 ng/mL | [M1] LC-MS analysis [4, 18]: 13.41 ng/mL | [M1] LC-MS analysis [4, 19]: 36.41 ng/mL | [M1] LC-MS analysis [4, 20]: 67.03 ng/mL | [M1] LC-MS analysis [4, 21]: 31.25 ng/mL | [M1] LC-MS analysis [4, 22]: 67.62 ng/mL | [M1] LC-MS analysis [4, 23]: 98.28 ng/mL | IC50 [5]: 0.0961 nM | EC5026 immunoassay IC50 [2]: 1.47 ng/mL
Structure (SMILES): C[C@H](C(=O)N1CCC(NC(=O)Nc2ccc(OC(F)(F)F)c(F)c2)CC1)[C@@H](C)O [M1, 1-(3-fluoro-4-(trifluoromethoxy)phenyl)-3-(1-((2S,3R)-3-hydroxy-2-methylbutanoyl)piperidin-4-yl)urea]
TPPU immunoassay CR [1]: 72.7%

TPPU immunoassay IC50 [1]: 5.01 ng/mL | [M2] LC-MS analysis [4, 6]: 28.66 ng/mL | [M2] LC-MS analysis [4, 7]: 61.59 ng/mL | [M2] LC-MS analysis [4, 8]: 51.04 ng/mL | [M2] LC-MS analysis [4, 9]: 67.21 ng/mL | [M2] LC-MS analysis [4, 10]: 47.44 ng/mL | [M2] LC-MS analysis [4, 11]: 43.94 ng/mL | [M2] LC-MS analysis [4, 12]: 12.99 ng/mL | [M2] LC-MS analysis [4, 13]: 53.46 ng/mL | [M2] LC-MS analysis [4, 14]: 59.34 ng/mL | [M2] LC-MS analysis [4, 15]: 45.69 ng/mL | [M2] LC-MS analysis [4, 16]: 75.89 ng/mL | [M2] LC-MS analysis [4, 17]: 52.38 ng/mL | [M2] LC-MS analysis [4, 18]: 14.93 ng/mL | [M2] LC-MS analysis [4, 19]: 50.31 ng/mL | [M2] LC-MS analysis [4, 20]: 106.12 ng/mL | [M2] LC-MS analysis [4, 21]: 44.20 ng/mL | [M2] LC-MS analysis [4, 22]: 103.57 ng/mL | [M2] LC-MS analysis [4, 23]: 158.70 ng/mL | IC50 [5]: 0.0961 nM | EC5026 immunoassay IC50 [2]: 1.38 ng/mL
Structure (SMILES): C[C@H](O)[C@H](C)C(=O)N1CCC(NC(=O)Nc2ccc(OC(F)(F)F)c(F)c2)CC1 [M2, 1-(3-fluoro-4-(trifluoromethoxy)phenyl)-3-(1-((2S,3S)-3-hydroxy-2-methylbutanoyl)piperidin-4-yl)urea]
TPPU immunoassay CR [1]: 59.4%

Curve parameters IC50 ([1]; Nb-TP02, cAg 4-BSA (homologous)): 2.53 ng/mL | Curve parameters IC50 ([1]; Nb-TP02, cAg 4-OVA (homologous)): 2.76 ng/mL | Curve parameters IC50 ([1]; Nb-TP02, cAg 5-BSA (homologous)): 4.53 ng/mL | Curve parameters IC50 ([1]; Nb-TP02, cAg 5-OVA (homologous)): 2.44 ng/mL | Curve parameters IC50 ([1]; Nb-TP02, cAg 6-BSA (heterologous)): 2.40 ng/mL | TPPU immunoassay IC50 [1]: 2.98 ng/mL | EC5026 immunoassay CR [2]: 52.9% | EC5026 immunoassay IC50 [2]: 2.72 ng/mL
Structure (SMILES): CCC(=O)N1CCC(NC(=O)Nc2ccc(OC(F)(F)F)cc2)CC1 [TPPU, 1-trifluoromethoxyphenyl-3-(1-propionylpiperidin-4-yl)urea]
TPPU immunoassay CR [1]: 100%
